Test system: KK mice (age 4-5 months) with diabetes
Experiment: Blood sugar lowering effect in KK mice with diabetes
Assay type: in vivo
Conditions: Mus musculus, po, 72 h, powder diet containing 0.01% of the test compound for 3 days, plasma glucose vs control group, groups of 4 mice, read-out: Blood sugar decrease rate (%)
Text: [Test Example] Blood Sugar Lowering Effect
Blood samples were collected from the caudal vein of KK mice (age 4-5 months) with diabetes followed by measurement of their blood sugar levels. Next, after assigning the mice to groups (of 4 mice each) so that the mean blood sugar levels of each group were the same, mouse laboratory powder diet (F-1, Funabashi Farms), prepared so as to contain 0.01% of the test compound, was given to the mice for 3 days. The groups of mice that were given test compound were designated as the drug dose groups. It should be noted that a group that was given laboratory diet not containing the test compound was designated as the control group. Blood samples were collected from the caudal vein of the mice 3 days later and the glucose concentration of the plasma obtained by centrifugal separation was measured with a glucose analyzer (Glucoloader, A & T Corp.). The mean decrease of blood sugar rate (%) was determined according to the following equation.
Blood sugar decrease rate (%)=(mean blood sugar value of control group−mean blood sugar value […] of drug dose group)×100/(blood sugar value of control group)

Compound	inhibition in vivo at 0.01 % in diet [%]
Cn1c(COc2ccc(CC3SC(=O)NC3=O)cc2)nc2ccc(Oc3ccc4cccc(NC(=O)NCc5ccccc5)c4c3)cc21 (centres unmarked) [Example 45, 1-Benzyl-3-(7-[2-[4-(2,4-dioxothiazolidin-5-ylmethyl)phenoxymethyl]-1-methyl-1H-benzimidazol-6-yloxy]naphthalen-1-yl)urea]	54.1
Cn1c(COc2ccc(CC3SC(=O)NC3=O)cc2)nc2ccc(Oc3ccc(NC(=O)C4CCCC4)cc3)cc21 (centres unmarked) [Example 59, N-[4-[2-[4(2,4-dioxothiazolidin-5-ylmethyl)phenoxymethyl]-1-methyl-1H-benzimidazol-6-yloxy]phenyl]cyclopentanecarboxamide]	56.8
